Results: US5447931A, “New therapeutic use of heterocyclylpiperazines as 5-HT3 agonists and new compounds” (Sanofi, priority 1992, dated 1995)

Test system: 5-HT3 receptors
Test: Bezold-Jarisch effect (reduction of heart rate) in the anesthetized rat, intravenous administration
Type: in vivo, Sprague-Dawley rats
Details: antagonist against the heart rate reduction by compounds of formula (I)

| Structure (SMILES) | inhibition by antagonist of the Bezold-Jarisch effect evoked by compounds of formula (I) |
| --- | --- |
| CN1[C@@H]2CC[C@H]1C[C@@H](OC(=O)c1c[nH]c3ccccc13)C2 [ICS 205-930] | inhibited |
| COc1cc(N)c(Cl)cc1C(=O)NC1CN2CCC1CC2 (centres unmarked) [zacopride] | inhibited |
